Measurements reported in patent US20050009924A1 (priority 2003, published 2005).
Like-named read-outs stand apart in the source and are kept apart here.

Experiments:
[1] = test system: human hepatoma G2 cells; experiment: Cytotoxicity assay (XTT colorimetric), Hep G2; type: cell-based
[2] = test system: rat glioma C6 cells; experiment: Cytotoxicity assay (XTT colorimetric), C6 cells; type: cell-based
[3] = test system: hepatitis B virus transfected hepatoma cell lines, HepG 2.2.15 cells; experiment: Cytotoxicity assay, 2.2.15 cells; type: cell-based, human
[4] = MTT relative viability, PhTERT-SEAP (hTERT-BJ1) cells; settings: human
[5] = MTT relative viability, PhTERT-SEAP (H1299) cells; settings: human
[6] = test system: transcriptional activity of hTERT; experiment: SEAP reporter assay of hTERT expression, PhTERT-SEAP (hTERT-BJ1); type: cell-based, human
Description: (§1) Secreted alkaine phosphatase was used as the reporter system to monitor the transcriptional activity of hTERT. Here, about […] each were grown in 96-well plates and incubated at 37° C. for 24 h and changed with fresh media. Varying amounts of drugs were added and cells were incubated for another 24 h. Culture media were collected and heated at 65° C. for 10 min to inactivate heat-labile phosphatases. An equal amount of SEAP buffer (2 M diethanolamine, 1 mM MgCl2, and 20 mM […]) was added to the media and p-nitrophenyl phosphate was added to a final concentration of 12 mM. Absorptions at 405 nm were taken, and the rate of absorption increase is determined.
(§2) Culture media were changed every 3 days. […] The stable clones were selected using G418.

[7] = test system: transcriptional activity of hTERT; experiment: SEAP reporter assay of hTERT expression, PhTERT-SEAP (H1299); type: cell-based, human
Description: as §1, §2

[8] = hTERT-BJ1 cells, stable PhTERT-SEAP reporter clone
[9] = Homo sapiens, HepG2, 48 h of drug exposure
[10] = Rattus norvegicus, C6, 48 h of drug exposure
[11] = Homo sapiens, HepG2.2.15, 48 h of drug exposure

SMILES: O=C1c2cccc(NCCCCO)c2C(=O)c2c(NCCCCO)cccc21 [Vi]
- IC50 ([1]; 48 h of drug exposure): 1.65 µM
- IC50 ([2]; 48 h of drug exposure): 0.41 ± 0.02 µM
- IC50 ([3]; 48 h of drug exposure): > 20 µM

SMILES: CCN(CC)CCC(=O)Nc1ccc(NC(=O)CCN(CC)CC)c2c1C(=O)c1ccccc1C2=O [VI34, 1,4-Bis[3-(diethylamino)propionamido]-9,10-anthracenedione]
- viability at 48 h, 2 µM [4, 8]: 83 ± 9.2%
- viability at 48 h, 20 µM [4, 8]: 15 ± 3.9%
- viability at 48 h, 203 µM [4, 8]: 6 ± 3.9%
- viability at 48 h, 2 µM [5]: 92 ± 6.1%
- viability at 48 h, 20 µM [5]: 11 ± 2.5%
- viability at 48 h, 203 µM [5]: 1 ± 2.4%
- IC50 [1, 9]: 0.49 µM
- IC50 [2, 10]: 0.9 µM
- SEAP/vibility ([6]; 2.0 μM, PhTERT-SEAP (hTERT-BJ1)): 0.03
- SEAP/vibility ([6]; 20 μM, PhTERT-SEAP (hTERT-BJ1)): −0.13
- SEAP/vibility ([6]; 203 μM, PhTERT-SEAP (hTERT-BJ1)): −0.37
- activity at 2 µM ([6]; Homo sapiens, 2.0 μM, PhTERT-SEAP (hTERT-BJ1), read-out: Relative SEAP activity (%)): 2 ± 11.1%
- activity at 20 µM ([6]; Homo sapiens, 20 μM, PhTERT-SEAP (hTERT-BJ1), read-out: Relative SEAP activity (%)): -2%
- activity at 203 µM ([6]; Homo sapiens, 203 μM, PhTERT-SEAP (hTERT-BJ1), read-out: Relative SEAP activity (%)): -2%
- SEAP/vibility ([7]; 2.0 μM, PhTERT-SEAP(hTERT-H1299)): 0.79
- SEAP/vibility ([7]; 20 μM, PhTERT-SEAP(hTERT-H1299)): 4.63
- SEAP/vibility ([7]; 203 μM, PhTERT-SEAP(hTERT-H1299)): 44.24
- activity at 2 µM ([7]; Homo sapiens, NCI-H1299, 2.0 μM, PhTERT-SEAP(hTERT-H1299), read-out: Relative SEAP activity (%)): 73 ± 2.7%
- activity at 20 µM ([7]; Homo sapiens, NCI-H1299, 20 μM, PhTERT-SEAP(hTERT-H1299), read-out: Relative SEAP activity (%)): 53 ± 2.7%
- activity at 203 µM ([7]; Homo sapiens, NCI-H1299, 203 μM, PhTERT-SEAP(hTERT-H1299), read-out: Relative SEAP activity (%)): 39 ± 0.8%
- IC50 [3, 11]: 0.28 µM

SMILES: CN(C)CCNc1cccc2c1C(=O)c1c(NCCN(C)C)cccc1C2=O [Vj]
- IC50 ([1]; 48 h of drug exposure): 0.16 µM
- IC50 ([2]; 48 h of drug exposure): 0.15 ± 0.04 µM
- IC50 ([3]; 48 h of drug exposure): 8.55 µM

SMILES: CCCCNc1cccc2c1C(=O)c1c(NCCCC)cccc1C2=O [Vc]
- IC50 ([1]; 48 h of drug exposure): > 20 µM
- IC50 ([2]; 48 h of drug exposure): > 20 µM
- IC50 ([3]; 48 h of drug exposure): > 20 µM

SMILES: N.N.[Cl][Pt][Cl] [Cisplatin, reference compound]
- IC50 ([1]; 48 h of drug exposure): 1.48 ± 0.62 µM
- IC50 ([2]; 48 h of drug exposure): > 1 µM
- IC50 ([3]; 48 h of drug exposure): 2 ± 0.54 µM

SMILES: COc1cccc2c1C(=O)c1c(O)c3c(c(O)c1C2=O)C[C@@](O)(C(=O)CO)C[C@@H]3O[C@H]1C[C@H](N)[C@H](O)[C@H](C)O1 [Adriamycin, reference compound]
- IC50 [1, 9]: 0.9 ± 0.01 µM
- IC50 [2, 10]: 1 µM
- IC50 [3, 11]: 1.6 µM

SMILES: CCCCNc1cccc2c1C(=O)c1cccc(NCCCC)c1C2=O [IVj, 1,5-Bis(butylamino)anthraquinone]
- viability at 48 h, 285 µM [4]: 75 ± 5.9%
- viability at 48 h, 2.8 µM ([4]; hTERT-BJ1 cells): 109 ± 9.1%
- viability at 48 h, 28 µM ([4]; hTERT-BJ1 cells): 99 ± 5.9%
- viability at 48 h, 2.8 µM [5]: 102 ± 7%
- viability at 48 h, 28 µM [5]: 104 ± 9.2%
- viability at 48 h, 285 µM [5]: 81 ± 13.9%
- IC50 [1, 9]: > 20 µM
- IC50 [2, 10]: > 20 µM
- activity at 2.8 µM ([6]; Homo sapiens, 2.8 μM, hTERT-BJ1, read-out: Relative SEAP activity (%)): 98 ± 27.4%
- activity at 28 µM ([6]; Homo sapiens, 28 μM, hTERT-BJ1, read-out: Relative SEAP activity (%)): 103 ± 27%
- activity at 285 µM ([6]; Homo sapiens, 285 μM, hTERT-BJ1, read-out: Relative SEAP activity (%)): 123 ± 22.9%
- activity at 2.8 µM ([7]; Homo sapiens, NCI-H1299, 2.8 μM, hTERT-H1299, read-out: Relative SEAP activity (%)): 106 ± 7.1%
- activity at 28 µM ([7]; Homo sapiens, NCI-H1299, 28 μM, hTERT-H1299, read-out: Relative SEAP activity (%)): 105 ± 5.5%
- activity at 285 µM ([7]; Homo sapiens, NCI-H1299, 285 μM, hTERT-H1299, read-out: Relative SEAP activity (%)): 98 ± 5.2%
- IC50 [3, 11]: > 20 µM

SMILES: CN(C)CCNc1cccc2c1C(=O)c1cccc(NCCN(C)C)c1C2=O [IVd, 1,5-Bis(2-dimethylaminoethylamino)anthraquinone]
- viability at 48 h, 2.6 µM ([4]; hTERT-BJ1 cells): 92 ± 4.8%
- viability at 48 h, 26 µM ([4]; hTERT-BJ1 cells): 76 ± 5.9%
- viability at 48 h, 262 µM ([4]; hTERT-BJ1 cells): 7 ± 18.2%
- viability at 48 h, 2.6 µM [5]: 107 ± 9.1%
- viability at 48 h, 26 µM [5]: 81 ± 8.3%
- viability at 48 h, 262 µM [5]: 29 ± 2.6%
- IC50 [1, 9]: 0.09 ± 0.01 µM
- IC50 [2, 10]: 0.12 µM
- activity at 2.6 µM ([6]; Homo sapiens, 2.6 μM, hTERT-BJ1, read-out: Relative SEAP activity (%)): 11 ± 22.4%
- activity at 26 µM ([6]; Homo sapiens, 26 μM, hTERT-BJ1, read-out: Relative SEAP activity (%)): -15%
- activity at 262 µM ([6]; Homo sapiens, 262 μM, hTERT-BJ1, read-out: Relative SEAP activity (%)): -26%
- activity at 2.6 µM ([7]; Homo sapiens, NCI-H1299, 2.6 μM, hTERT-H1299, read-out: Relative SEAP activity (%)): 103 ± 6%
- activity at 26 µM ([7]; Homo sapiens, NCI-H1299, 26 μM, hTERT-H1299, read-out: Relative SEAP activity (%)): 54 ± 5.9%
- activity at 262 µM ([7]; Homo sapiens, NCI-H1299, 262 μM, hTERT-H1299, read-out: Relative SEAP activity (%)): 40 ± 5.9%
- IC50 [3, 11]: 0.13 µM

SMILES: O=C1c2cccc(NC3CCCC3)c2C(=O)c2c(NC3CCCC3)cccc21 [Vn]
- IC50 ([1]; 48 h of drug exposure): > 20 µM
- IC50 ([2]; 48 h of drug exposure): > 20 µM
- IC50 ([3]; 48 h of drug exposure): > 20 µM

SMILES: CCCCCCNc1cccc2c1C(=O)c1c(NCCCCCC)cccc1C2=O [Ve]
- IC50 [1]: > 20 µM
- IC50 [2]: > 20 µM
- IC50 [3]: > 20 µM

SMILES: CC(C)CNc1cccc2c1C(=O)c1c(NCC(C)C)cccc1C2=O [Vd]
- IC50 ([1]; 48 h of drug exposure): > 20 µM
- IC50 ([2]; 48 h of drug exposure): 1.32 ± 0.01 µM
- IC50 ([3]; 48 h of drug exposure): > 20 µM

SMILES: O=C1c2cccc(NC3CCCC3)c2C(=O)c2cccc(NC3CCCC3)c21 [IVo, 1,5-Bis(cyclopentaneamino)-anthraquinone]
- IC50 ([1]; 48 h of drug exposure): > 20 µM
- IC50 ([2]; 48 h of drug exposure): > 20 µM
- IC50 ([3]; 48 h of drug exposure): > 20 µM

SMILES: O=C1c2cccc(NCCO)c2C(=O)c2c(NCCO)cccc21 [Vg]
- IC50 [1]: > 20 µM
- IC50 [2]: 0.02 ± 0.01 µM
- IC50 [3]: > 20 µM

SMILES: NCCCNc1cccc2c1C(=O)c1c(NCCCN)cccc1C2=O [Vk]
- IC50 ([1]; 48 h of drug exposure): 11.4 ± 0.17 µM
- IC50 ([2]; 48 h of drug exposure): > 20 µM
- IC50 ([3]; 48 h of drug exposure): > 20 µM

SMILES: NCCCCNc1cccc2c1C(=O)c1c(NCCCCN)cccc1C2=O [Vl]
- IC50 ([1]; 48 h of drug exposure): 11.5 ± 0.34 µM
- IC50 ([2]; 48 h of drug exposure): > 20 µM
- IC50 ([3]; 48 h of drug exposure): > 20 µM

SMILES: CC(C)Nc1cccc2c1C(=O)c1c(NC(C)C)cccc1C2=O [Vf, 1,8-Bis(isopropylamine)-anthraquinone]
- IC50 ([1]; 48 h of drug exposure): > 20 µM
- IC50 ([2]; 48 h of drug exposure): 1.24 ± 0.01 µM
- IC50 ([3]; 48 h of drug exposure): > 20 µM

SMILES: O=C1c2cccc(NCc3ccccc3)c2C(=O)c2c(NCc3ccccc3)cccc21 [Vo]
- IC50 ([1]; 48 h of drug exposure): > 20 µM
- IC50 ([2]; 48 h of drug exposure): 1.66 ± 0.09 µM
- IC50 ([3]; 48 h of drug exposure): > 20 µM

SMILES: CCCNc1cccc2c1C(=O)c1c(NCCC)cccc1C2=O [Vb, 1,8-Bis(propylamine)-anthraquinone]
- IC50 ([1]; 48 h of drug exposure): 0.19 µM
- IC50 ([2]; 48 h of drug exposure): 0.61 ± 0.01 µM
- IC50 ([3]; 48 h of drug exposure): 1.06 µM

SMILES: O=C1c2cccc(Nc3ccc(O)cc3)c2C(=O)c2cccc(Nc3ccc(O)cc3)c21 [IVq, 1,5-Bis(phenolamino)-anthraquinone]
- IC50 ([1]; 48 h of drug exposure): 4.2 ± 0.76 µM
- IC50 ([2]; 48 h of drug exposure): 14.21 ± 0.08 µM
- IC50 ([3]; 48 h of drug exposure): > 20 µM

SMILES: CCNc1cccc2c1C(=O)c1c(NCC)cccc1C2=O [Va, 1,8-Bis(ethylamine)-anthraquinone]
- IC50 ([1]; 48 h of drug exposure): > 20 µM
- IC50 ([2]; 48 h of drug exposure): > 20 µM
- IC50 ([3]; 48 h of drug exposure): > 20 µM

SMILES: O=C1c2cccc(NCCc3ccccc3)c2C(=O)c2c(NCCc3ccccc3)cccc21 [Vp]
- IC50 ([1]; 48 h of drug exposure): > 20 µM
- IC50 ([2]; 48 h of drug exposure): > 20 µM
- IC50 ([3]; 48 h of drug exposure): > 20 µM

SMILES: O=C1c2cccc(NCCCO)c2C(=O)c2c(NCCCO)cccc21 [Vh]
- IC50 ([1]; 48 h of drug exposure): > 20 µM
- IC50 ([2]; 48 h of drug exposure): 1 ± 0.01 µM
- IC50 ([3]; 48 h of drug exposure): > 20 µM
